Reference: patent US12433954B2, “Methods of activating anti-CD19 chimeric antigen receptor (CAR) T cells using amphiphilic ligand conjugates comprising CAR-targeting protein sequence motifs” (Massachusetts Institute of Technology, priority 2020, dated 2025)
Bridge positions count the residues as written; N and C are the ends. Ends that are not written are not given here. Peptide text beside a SMILES is read from it. * marks the point of attachment. Biotin = O=C1N[C@H]2[C@H](CS[C@H]2CCCCC(=O)*)N1

What was measured:
[1] = Micelle stability of lipid-oligonucleotide conjugates in presence of serum; assay type: physicochemical; conditions: for micelle stability on increasing number of guanines: in the presence of serum, compared with lipo-G6T4-CG; for percentage of intact micelles: micelles formed in aqueous solution, in the presence of serum (FBS)
Method: For example, in certain embodiments, a plurality of lipid conjugates is allowed to spontaneously form micelles in aqueous solution. The micelles are incubated with albumin, or a solution including albumin such as Fetal Bovine Serum (FBS). Samples can be analyzed, for example, by ELISA, size exclusion chromatography or other methods to determine if binding has occurred. Lipid conjugates can be selected as lymph node-targeting conjugates if in the presence of albumin, or a solution including albumin such as Fetal Bovine Serum (FBS), the micelles dissociate and the lipid conjugates bind to albumin as discussed above.
In certain embodiments, the linker is one or more guanines, for example between 1-10 guanines. It has been discovered that altering the number of guanines between a cargo such as a CpG oligonucleotide, and a lipid tail controls micelle stability in the presence of serum proteins. Therefore, the number of guanines in the linker can be selected based on the desired affinity of the conjugate for serum proteins such as albumin. When the cargo is a CpG immunostimulatory oligonucleotide and the lipid tail is a diacyl lipid, the number of guanines affects the ability of micelles formed in aqueous solution to dissociate in the presence of serum: 20% of the non-stabilized micelles (lipo-G0T10-CG) (SEQ ID NO: 138) were intact, while the remaining 80% were disrupted and bonded with FBS components.

FMC63 = FMC63 binding of mimotope-expressing yeast after DTT treatment (flow cytometry); set-up: species or system mouse; conditions: DTT 0.01-10 mM, 30 minutes, room temperature; yeast-displayed
FMC63, sequence (as listed by the source): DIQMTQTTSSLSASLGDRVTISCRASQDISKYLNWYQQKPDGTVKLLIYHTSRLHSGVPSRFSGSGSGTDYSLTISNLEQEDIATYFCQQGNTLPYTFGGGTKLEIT
FMC63, sequence (as listed by the source): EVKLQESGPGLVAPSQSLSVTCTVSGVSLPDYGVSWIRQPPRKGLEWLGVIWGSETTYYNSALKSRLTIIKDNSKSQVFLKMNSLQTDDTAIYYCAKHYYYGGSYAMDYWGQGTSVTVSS
Method: To determine the formation of an intra-peptidyl disulfide bridge formed by the two Cys residues, mimotope expressing yeast were treated in reducing conditions and binding of the mimotope to FMC63 IgG was measured. […] Similarly, control cells expressing Aga2p (connected to the yeast surface by disulfide bridge) were treated with DTT. Following treatment, cells were labelled with biotinylated Aga2p or FMC63 and binding was measured by flow cytometry. At mild reducing conditions, Aga2p was maintained on the yeast surface while mimotope binding to FMC63 was abolished (FIG. 6). The inhibition of mimotope binding to FMC63 following treatment with a reducing agent reaffirms the formation of the disulfide bond and its importance for binding.

FMC63 scFv = assay: Dissociation kinetics of FMC63 scFv from yeast clones (flow cytometry); assay type: binding, mouse; conditions: yeast clones labeled, washed, incubated 0-72 hours
FMC63 scFv, sequence (as listed by the source): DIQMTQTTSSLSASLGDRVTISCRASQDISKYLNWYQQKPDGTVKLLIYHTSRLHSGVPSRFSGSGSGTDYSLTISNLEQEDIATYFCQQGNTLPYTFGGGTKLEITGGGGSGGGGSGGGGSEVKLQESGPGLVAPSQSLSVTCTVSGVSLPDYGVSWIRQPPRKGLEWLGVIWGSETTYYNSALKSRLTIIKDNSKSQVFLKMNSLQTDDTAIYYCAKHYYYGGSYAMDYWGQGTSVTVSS
Method: The yeast clones were labeled with the scFv, washed, and incubated for 0-72 hours as indicated prior to analysis.
The dissociation kinetics following binding of the mimotopes to FMC63 were also investigated. […] The yeast were then washed, and incubated for 0-72 hours prior to analysis of the degree of FMC63 scFv labeling by flow cytometry.

FMC63 IgG antibody = assay: Alanine scanning mutagenesis, flow cytometry binding to FMC63 IgG; set-up: species or system mouse; conditions: yeast stained with 5 μM FMC63 IgG antibody
Method: FIG. 11 provides a graph showing flow cytometry analysis of alanine scanning mutagenesis for […] (SEQ ID NO: 16) where each amino acid position was mutated to an alanine, or additional alanine residues (one or two) were added. Flow cytometry analysis was performed to evaluate binding to the FMC63 IgG antibody.
To determine the effect of amino acid position on binding to FMC63, an alanine mutagenesis experiment was performed were each amino acid was mutated to alanine and binding to FMC63 was assessed. Specifically, a representative mimotope, […] (SEQ ID NO: 16), was mutated at each amino acid position to generate an alanine (SEQ ID NOs: 54-63) (Table 7). To assess the tolerance of additional alanine residues, one alanine or two alanine residues were inserted between the two cysteine residues (SEQ ID NOs: 52 and 53) to determine the impact the loop structure had on mimotope binding to FMC63. To generate mutations, two complementary oligos with the codon replaced at the desired site were denatured at 95° C. and annealed by slow cooling to 25° C. (decreasing by 0.5° C./second). The annealed oligos were treated with T4 PNK (T4 Polynucleotide Kinase) to add a terminal phosphate, and then ligated into digested pCT-CON2 vector. Positive clones having the correct oligo inserted were tested and transformed into competent EBY100 yeast cells. […]

FMC63 IgG = assay: ELISA of N-terminally biotinylated F12 variants on streptavidin plate, binding to FMC63 IgG; set-up: species or system mouse; conditions: read-out: Kd (nM), FMC63 binding affinity of F12 variants with N-terminal flanking residues
FMC63 CAR T cells = assay: In vivo CAR T cell proliferation in lymph nodes after amph-mimotope vaccination (cell trace violet dilution); set-up: species or system mice; conditions: inguinal LNs 48 hours post-vaccination; s.c. tail base with 25 μg cyclic-di-GMP; 10 ug monovalent or 20 ug bivalent
Method: FIG. 18A depicts a timeline for administration of CD45.1+ donor FMC63 CAR T cells to CD45.2+ recipient mice on Day 0, followed by administration of amph-mimotope or bivalent amph-mimotope on Day 1, and analysis of CAR T cell proliferation in lymph nodes harvested on Day 3 measured by cell trace violet dilution.
FIG. 18B provides histograms measuring the proliferation of FMC63 CAR T cells isolated from mice on Day 3 as depicted in FIG. 18A. The mice were administered amph-mimotope containing a mimotope with the sequence set forth in SEQ ID NO: 128 or 129 (Amph-K-A1 or Amph-K-C2 respectively) or the bivalent mimotopes depicted in FIG. 17C (amph-bi-F12-peg8 or amph-bi-F12-peg4). Control mice were administered no amph-mimotope.
CD45.1^+ donor FMC63 CAR T cells were prepared as described in Example 3 and labeled with cell trace violet according to manufacturer's protocol. 2×10^6 CAR T cells were administered into CD45.2^+ recipient mice via tail vein injection on Day 0. The following day, recipient mice were vaccinated by subcutaneous injection at the tail base with the following vaccine formulation: • (i) 10 ug of monovalent amph-mimotope (Amph-K-A1 or Amph-K-C2)+25 μg of cyclic-di-GMP in 1×PBS; or • (ii) 20 ug of amph-Bi-F12-mimotope (PEG4 or PEG8)+25 μg of cyclic-di-GMP in 1×PBS. […]

[2] = tested on: FMC63 anti-hCD19 CAR-T cells; assay: IFNγ secretion of CAR-T cells co-cultured with amph-mimotope coated K562 cells (ELISA); assay type: cell-based; conditions: K562 coated with 10 μM amph-mimotope, E:T 10:1, 24 hours; compared to amphiphile only control
Method: ID NO: 5) at 10 μM and incubated at 37° C. for 30 minutes. The labeling reaction was stopped by pelleting cells and washing with PBS. To mimic antigen presenting cells in lymph nodes, K562 cells were decorated with amph-mimotope, and then co-cultured at an effector to target (E:T) ratio of 10:1 with FMC63 expressing CAR-T cells (hCD19-CAR; SEQ ID NO: 78) for 24 hours. The hCD19-CAR was generated in part from a previously reported CAR (Pegram, H., et al. (2012) Blood 119:18 (4133-4141) and is composed of a human CD8 signal peptide (SEQ ID NO: 87), FMC63 scFV (SEQ ID NO: 70), murine CD8 hinge (SEQ ID NO: 74), a murine CD8 transmembrane domain (SEQ ID NO: 75), a murine CD28 costimulatory domain (SEQ ID NO: 76) and a murine CD3ζ intracellular domain (SEQ ID NO: 77). The overall CAR is provided in SEQ ID NO: 78. After co-culture, cells were pelleted at 2,000×g for 5 minutes, and the supernatant was harvested for IFNγ ELISA and processed following the manufacturer's protocol (Human IFNγ ELISA MAXTM Deluxe (Biolegend)).

lipo-G8T2-CG (DNA GGGGGGGGTTCG; DNA, backbone and methylation of C not given here; lipid conjugate)
micelle stability on increasing number of guanines [1]: did not further enhance micelle stability

lipo-G10T0-CG (DNA GGGGGGGGGGCG; DNA, backbone and methylation of C not given here; lipid conjugate)
micelle stability on increasing number of guanines [1]: did not further enhance micelle stability

RHCPWNCSLL [Clone A1]
mimotope binding to FMC63 after DTT (FMC63): abolished

K-A1 (PRKHSGRICPWNCKELDNPPFIFGNR; Synthetic FMC63 mimotope (A1))
time for which FMC63 scFv labeling is retained after wash (FMC63 scFv): ≥ 72 h

RLCPWSAACREL (Synthetic FMC63 Mimotope Mutant) [SEQ ID NO: 52]
mimotope binding to FMC63 of RLCPWSCREL variants (FMC63 IgG antibody): abolished

RLCPWSACREL (Synthetic FMC63 Mimotope Mutant) [SEQ ID NO: 53]
mimotope binding to FMC63 of RLCPWSCREL variants (FMC63 IgG antibody): abolished

CC[C@H](C)[C@H](NC(=O)[C@H](CCCNC(=N)N)NC(=O)[C@H](CO)NC(=O)[C@H](C)NC(=O)[C@H](CO)NC(=O)CCCC[C@@H]1SC[C@@H]2NC(=O)N[C@@H]21)C(=O)N[C@H]1CSSC[C@@H](C(=O)N[C@@H](CCCCN)C(=O)N[C@@H](CCC(=O)O)C(=O)N[C@@H](CC(C)C)C(=O)O)NC(=O)[C@H](CC(N)=O)NC(=O)[C@H](Cc2c[nH]c3ccccc23)NC(=O)[C@@H]2CCCN2C1=O [SEQ ID NO: 95] (Biotin-SASRICPWNCKEL-OH; disulfide 6-10)
Kd (FMC63 IgG): 0.147 nM

Amph-K-C2 (GGGSASRICPWNCKELPSPPRIFGNR; cysteine pairing not given here; also: amphiphile lipid conjugate, site not given here)
proliferation of CAR T cells in vivo (cell violet dilution) (FMC63 CAR T cells): observed

lipo-G0T10-CG (DNA TTTTTTTTTTCG; DNA, backbone and methylation of C not given here; lipid conjugate)
percentage of intact micelles [1]: 20%

CC[C@H](C)[C@H](NC(=O)[C@H](CCCNC(=N)N)NC(=O)[C@H](CO)NC(=O)[C@H](C)NC(=O)[C@H](CO)NC(=O)CNC(=O)CNC(=O)CNC(=O)CCCC[C@@H]1SC[C@@H]2NC(=O)N[C@@H]21)C(=O)N[C@H]1CSSC[C@@H](C(=O)N[C@@H](CCCCN)C(=O)N[C@@H](CCC(=O)O)C(=O)N[C@@H](CC(C)C)C(=O)O)NC(=O)[C@H](CC(N)=O)NC(=O)[C@H](Cc2c[nH]c3ccccc23)NC(=O)[C@@H]2CCCN2C1=O [SEQ ID NO: 96] (Biotin-GGGSASRICPWNCKEL-OH; disulfide 9-13)
Kd (FMC63 IgG): 0.141 nM

lipo-G2T8-CG (DNA GGTTTTTTTTCG; DNA, backbone and methylation of C not given here; lipid conjugate)
percentage of intact micelles [1]: 36%

lipo-G6T4-CG (DNA GGGGGGTTTTCG; DNA, backbone and methylation of C not given here; lipid conjugate)
percentage of intact micelles [1]: 90%

amph-mimotope (RHCPWNCSLL; SEQ ID NO: 5) (cysteine pairing not given here; also: amphiphilic lipid tail conjugated, site not given here)
CAR-T cell activation measured by IFNγ secretion [2]: significantly activated

lipo-G4T6-CG (DNA GGGGTTTTTTCG; DNA, backbone and methylation of C not given here; lipid conjugate)
percentage of intact micelles [1]: 73%
